From the supplement of paper PMC11451515

Tested on: P12-Ichikawa
Experiment: cell viability relative to DMSO control; higher = less cytotoxic
Details: 48 h
Summary of the method: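 Viability was expressed as a per-plate percentage of DMSO wells, with cell-free wells as background. Leukemia cells (NOMO1 or SEM at 500 cells/well, P12-Ichikawa at 1000 cells/well) were adapted for at least four passages in each medium and seeded in 1536-well plates (5 μl). Library compounds in DMSO were pin-dosed over an 11-point threefold series from 47 μM to 0.79 nM, and CellTiter-Glo One luminescence was read after 48 h at 37°C.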

[1] = RPMI 5 mM glucose + 10% dialyzed FBS, 0.000781 µM
[2] = RPMI 5 mM glucose + 10% dialyzed FBS, 0.00234 µM
[3] = RPMI 5 mM glucose + 10% dialyzed FBS, 0.00702 µM
[4] = RPMI 5 mM glucose + 10% dialyzed FBS, 0.0211 µM
[5] = RPMI 5 mM glucose + 10% dialyzed FBS, 0.0632 µM
[6] = RPMI 5 mM glucose + 10% dialyzed FBS, 0.19 µM
[7] = RPMI 5 mM glucose + 10% dialyzed FBS, 0.569 µM
[8] = RPMI 5 mM glucose + 10% dialyzed FBS, 1.71 µM
[9] = RPMI 5 mM glucose + 10% dialyzed FBS, 5.12 µM
[10] = RPMI 5 mM glucose + 10% dialyzed FBS, 15.4 µM
[11] = RPMI 5 mM glucose + 10% dialyzed FBS, 46.1 µM

Row | Structure (SMILES) | cell viability [1] [%] | cell viability [2] [%] | cell viability [3] [%] | cell viability [4] [%] | cell viability [5] [%] | cell viability [6] [%] | cell viability [7] [%] | cell viability [8] [%] | cell viability [9] [%] | cell viability [10] [%] | cell viability [11] [%] | cell viability (HPLM + 10% dialyzed FBS, 0.000781 µM) [%] | cell viability (HPLM + 10% dialyzed FBS, 0.00234 µM) [%] | cell viability (HPLM + 10% dialyzed FBS, 0.00702 µM) [%] | cell viability (HPLM + 10% dialyzed FBS, 0.0211 µM) [%] | cell viability (HPLM + 10% dialyzed FBS, 0.0632 µM) [%] | cell viability (HPLM + 10% dialyzed FBS, 0.19 µM) [%] | cell viability (HPLM + 10% dialyzed FBS, 0.569 µM) [%] | cell viability (HPLM + 10% dialyzed FBS, 1.71 µM) [%] | cell viability (HPLM + 10% dialyzed FBS, 5.12 µM) [%] | cell viability (HPLM + 10% dialyzed FBS, 15.4 µM) [%] | cell viability (HPLM + 10% dialyzed FBS, 46.1 µM) [%]
1 | COc1ccc2c(c1)CC[C@@H](CN(C)CC(=O)O)[C@H]2c1ccccc1 | 116 | 122 | 129 | 119 | 119 | 116 | 119 | 105 | 54.9 | 28.8 | 29.1 | – | – | – | – | – | – | – | – | – | – | –
2 | CC1CCN(c2cc(N3CCN(C)CC3)ccc2NC(=O)c2cc(C#N)c[nH]2)CC1 | 124 | 119 | 122 | 126 | 133 | 119 | 115 | 121 | 106 | 106 | 99.9 | – | – | – | – | – | – | – | – | – | – | –
3 | CC(C)C1=N[N](C\2=C1C(=O)N\C(=N2)CC3=CC=C(OCCO)C=C3)C4=C(Cl)C=CC=C4Cl | 118 | 129 | 117 | 124 | 127 | 31.8 | 10.9 | 5.95 | 6.23 | 6.55 | 3.77 | 116 | 116 | 109 | 108 | 107 | 44 | 10.7 | 5.9 | 6.83 | 6.62 | 5.21
